Test [1] has as its system HRV14 or HRV16. The settings on record: cited from earlier work.
In test [2] the test system is HSV-1. Put plainly: TCID50 titration of HSV-1 on PER.C6 with acyclovir, CPE score. The class given is cell-based, Herpes Simplex Virus type 1. The procedure:
(§1) FIG. 16. Virustatic activity of acyclovir for Herpes Simplex Virus type 1 and type 2 (HSV-1 and HSV-2) using PER.C6 cells as a substrate for virus replication and TCID50 calculations based on CPE score on day 6 post infection.
(§2) To test the feasibility of PER.C6 for antiviral drug screening, the acyclovir/HSV system was used. A TCID50 titration of both a HSV-1 as well as a HSV-2 stock virus produced on PER.C6 (titer 6000 TCID50/ml) was performed in either the absence or in the presence of different concentrations of acyclovir. PER.C6 cells were seeded in a 96-wells tissue culture plate at a concentration of 1×10^5 cells/well, in normal culture medium, DMEM (Gibco) supplemented with heat inactivated FBS (origin US, Gibco) and 1 ml 4.9 M MgCl2 (Sigma). The day after seeding, cells were pre-incubated with the appropriate acyclovir (20 mg/ml, Genthon) concentration being, 200, 20, 2, 0,2 and 0 μg/ml, diluted in normal culture medium, for 2 hours at 37° C. and 10% CO2. A total of 20 wells were used per concentration. […]
(§3) At day 6 post infection, CPE was scored in each of the wells and TCID50 calculated according to the Karber method (1931), which is well known to persons skilled in the art. In addition, viable cells were scored with the MTS assay. […] 10% CO2, followed by reading the OD490 in an ELISA reader.

The test system of test [3] is HSV-2. As to the kind of experiment: TCID50 titration of HSV-2 on PER.C6 with acyclovir, CPE score. The class given is cell-based, Herpes Simplex Virus type 2. The method, then: as §1, §2, §3
The subject of test [4] is HSV-1. As to the kind of experiment: Viable cell scoring by MTS assay of HSV-1 infected PER.C6 with acyclovir. Format: cell-based, Herpes Simplex Virus type 1. The settings on record: HSV-1 on PER.C6; day 6 post infection. The procedure: (§4) FIG. 17. Virustatic effect of acyclovir against (A) HSV-1 and (B) HSV-2 using infection of PER.C6 with different 10 fold serial dilutions of virus and viable cell scoring by MTS assay on day 6 post infection.
as §2, §3
A general note: Tetrazolium dyes change colour on reduction, which living cells bring about.

Test [5] concerns HSV-2. Put plainly: Viable cell scoring by MTS assay of HSV-2 infected PER.C6 with acyclovir. Format: cell-based, Herpes Simplex Virus type 2. The settings on record: HSV-2 on PER.C6; day 6 post infection. The method, then: as §4, §2, §3
Test [6] relates to HSV. Conditions: A549 cells; cited from earlier work.

With `c1ccc2c(c1)oc1ccccc12` [Dibenzofuran], in test [1] (cells infected with HRV14 or HRV16), the “cytopathic effect in infected cells” value is on record as “hinder the cytopathic effect”. Besides, the “rhinovirus replication in vitro” value in test [1] (in vitro) is recorded as “block rhinovirus replication in vitro”.
Consider `Nc1nc2c(ncn2COCCO)c(=O)[nH]1` [acyclovir, 2-amino-1,9-dihydro-9-[(2-hydroethoxy)methyl]-6H-purin-6-one], for which the “TCID50 reduction as compared to the control” value in test [2] (HSV-1 on PER.C6, 20 μg/ml of acyclovir, CPE score day 6 post infection) is listed as around 1000 fold. Also, the virustatic effect entry in test [2] (HSV-1 propagated on PER.C6 cells) and in test [3] (HSV-2 propagated on PER.C6 cells) was “clear virustatic effect” in each case. In addition, the “amount of acyclovir for 1000 fold TCID50 reduction, relative to HSV-1” value in test [3] (HSV-2 on PER.C6, CPE score day 6 post infection) was “required a higher amount of acyclovir”. Moreover, in test [4], the “prevention of cell death caused by virus (viable cells, MTS)” value is listed as “more effective at a lower dosage in preventing cell death caused by HSV-1 than by HSV-2”. Further, the “viable cells scored with MTS assay compared with TCID50 result” value in test [5] is recorded as “comparable results were obtained”. The HSV replication result in test [6] is given as “inhibited HSV replication”.

The values above are taken from patent US7163787B2, “Methods for the identification of antiviral compounds” (Crucell Holland B.V., priority 2001, dated 2007).
